Results taken from patent publication US20160114050A1, “Heparosan/Therapeutic Prodrug Complexes and Methods of Making and Using Same” (The Board of Regents of the University of Oklahoma, priority 2014, published 2016).

T1: mammalian heparanase (HEPase) (Homo sapiens, UniProt Q9Y251)
T1 sequence (Q9Y251 158-543 limits assumed): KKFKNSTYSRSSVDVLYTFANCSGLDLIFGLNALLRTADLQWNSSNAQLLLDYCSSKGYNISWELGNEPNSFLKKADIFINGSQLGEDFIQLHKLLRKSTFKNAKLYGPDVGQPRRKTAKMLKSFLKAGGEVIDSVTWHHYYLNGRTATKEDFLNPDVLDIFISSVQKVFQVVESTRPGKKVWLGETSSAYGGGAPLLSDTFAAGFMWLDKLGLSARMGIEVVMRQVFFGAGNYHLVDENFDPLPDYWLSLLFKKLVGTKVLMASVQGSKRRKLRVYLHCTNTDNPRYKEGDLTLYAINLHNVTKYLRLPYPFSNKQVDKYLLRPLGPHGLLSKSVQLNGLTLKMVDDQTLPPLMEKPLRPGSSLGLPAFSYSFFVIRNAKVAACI
T1 sequence (Q9Y251 36-109 limits assumed): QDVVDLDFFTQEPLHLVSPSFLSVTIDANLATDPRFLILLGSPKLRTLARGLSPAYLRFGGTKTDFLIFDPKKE


How the values were obtained:
[1] = molecular target: T1, mammalian heparanase (HEPase); conditions: cited from earlier work
[2] = tested on: anti-heparosan antibodies; experiment: ELISA serological test for anti-heparosan IgG/IgM antibodies after repeated immunization; type: in vivo; conditions: rat, multiple boosts over approximately seven months
Source text: FIG. 7 depicts the serological test results for potential induction of anti-heparosan antibodies against a heparosan-containing molecule (HEP-G-CSF, heparosan sugar polymer attached to the Granulocyte Colony Stimulating Factor (G-CSF) protein) in a rat model. A control pre-immune sera was collected, and then three animals (Rat #1, #2, and #3) were immunized and periodically boosted with HEP-G-CSF eight times over an approximately seven month period followed by periodic test bleeds. The various serum samples were tested in 96-well plates via ELISA. First, the wells of the plate were coated either with: (i) bovine serum albumin (BSA) to assess the background (‘Control’ shown in grey bars); or (ii) heparosan-BSA (HEP-BSA) conjugate (‘HEP’; shown in black bars), to measure any potential immune response. After blocking all the wells with BSA and washing thoroughly, 1 μl of the pre-immunization serum (the negative control Prebleed, ‘PreB’) or post-immunization serum (collected either on week 9 (Bleed #1; B#1), week 15 (B#2), or week 30 (B#3)) was incubated with wells (the rats had 3, 5, or 9 injections of test antigen, respectively, before these three bleeds). After washing the wells, the presence of any bound rat antibodies was determined by interaction with either an anti-rat IgG (Panel A) or an anti-rat lgM (Panel B) goat secondary antibody-horseradish peroxidase conjugate. […]

Molecule | HEPase? substantially sensitive to cleavage by mammalian heparanase [1] | induction of specific anti-heparosan antibodies (IgG, IgM) [2]
Dermatan sulfate | No | 
HEP-G-CSF (conjugate, UniProt P09919 31-207, looked up, heparosan polymer conjugate) Granulocyte …: TPLGPASSLPQSFLLKCLEQVRKIQGDGAALQEKLVSECATYKLCHPEELVLLGHSLGIPWAPLSSCPSQALQLAGCLSQLHSGLFLYQGLLQALEGISPELGPTLDTLQLDVADFATTIWQQMEELGMAPALQPTQGAMPAFASAFQRRAGGVLVASHLQSFLEVSYRVLRHLAQP |  | no specific antibodies against heparosan were observed
